ChEMBL document CHEMBL5120812, “Cytotoxic Nitrobenzoyl Sesquiterpenoids from an Antarctica Sponge-Derived Aspergillus insulicola” (J Nat Prod, 2022)

Tests used:
Type in all cases: functional, cell-based
ASPC1 = assay: Cytotoxicity against human ASPC1 cells assessed as inhibition of cell growth incubated for 72 hrs by SRB assay; conditions: ASPC1, 72 h
MDA-MB-231 = assay: Cytotoxicity against human MDA-MB-231 cells assessed as inhibition of cell growth incubated for 72 hrs by SRB assay; conditions: MDA-MB-231, 72 h
PANC-1 = assay: Cytotoxicity against human PANC-1 cells assessed as inhibition of cell growth incubated for 72 hrs by SRB assay; conditions: PANC-1, 72 h

Measured: IC50

C[C@]1(COC(=O)CCCCCCC/C=C/C(=O)O)CCC[C@]2(C)[C@H]3COC(=O)C3=C[C@@H](OC(=O)c3ccc([N+](=O)[O-])cc3)[C@@H]12
> 30 µM: all assays above
